These results are taken from patent US7109193B2, “Tricyclic diazepines tocolytic oxytocin receptor antagonists” (Wyeth, priority 2001, dated 2006).

The test addresses T1, human vasopressin V1a receptor subtype (Homo sapiens, UniProt P37288).
T1 construct: host or cells: CHO cells (pZeoSV vector for the Thibonnier line)
As to the kind of experiment: Vasopressin binding in Chinese Hamster Ovary cell membranes expressing human vasopressin V1a subtype receptors. The following applies: 100 nM, CHO cell membranes, [3H]Manning ligand, values without parentheses. On the procedure:
Vasopressin Binding in Chinese Hamster Ovary Cell Membranes Expressing Human Vasopressin V1a Subtype Receptors
The trypsin is removed by aspiration and the cells dislodged by tapping. Cell Culture medium (e.g. 30 mL for 1:30 split) is immediately added and mixed well to inactivate trypsin. 1 mL of detached cells is added to new culture flasks containing fresh cell culture medium (e.g., into 25 mL per T-150 flask), and mixed gently. The cells are incubated at 37° C. in 5% CO2. The medium is changed at 3 to 4 days interval (or as appropriate). […] All steps are done under sterile conditions. B. Membrane Preparation: The cells are washed twice gently with Hank's Balanced Salt solution (e.g,. use 10 mL per T-150 flask). […] The contents are transferred to centrifuge tubes (50 mL) kept in an ice bath. All subsequent steps are done at 4° C. The tubes are centrifuged at 300×g for 15 min (1380 rpm on SORVAL, Model RT6000D, using the rotor for 50 mL tubes). The supernatant is discarded and the cells suspended in homogenizing buffer(10 mM Tris-HCl containing 0.25 M sucrose and 1 mM EDTA, pH 7.4) ensuring that the volume of the buffer is about ten times the volume of the cell pellet. The cells are pooled into a centrifuge tube (50 mL) and homogenized with a Polytron at setting 6 for 10 sec. The homogenate is transferred into a Potter-Elvjehm homogenizer and homogenized with 3 strokes. The homogenate is centrifuged at 1500×g for 10 min at 4° C. (3100 rpm using SORVAL, model RT6000D, using the rotor for 50 mL tubes). The pellet is discarded. The supernatant is centrifuged at 100,000×g for 60 min. at 4° C. (Beckman L8-80M ultracentrifuge; spin at 37,500 rpm with rotor type 70 Ti for 50 mL tubes; 38,000 rpm with type 80Ti for 15 mL tubes; or 35,800 rpm with rotor type 45Ti). The supernantant is discarded and the pellet suspended in 3 to 4 mL of Tris buffer (50 mM TRIS-HCl, pH 7.4). The protein content is estimated by the Bradford or Lowry method. The volume of the membrane suspension is adjusted with the membrane buffer (50 mM Tris-HCl containing 0.1% BSA and 0.1 mM PMSF) to give 3.0 mg/mL (or as appropriate) of protein. The membranes are aliquoted and stored at −70° C. C. Radioligand Binding Assay: In wells of a 96-well format microtiter plate, is added 90, 110 or 130 μL (to make up a final volume of 200 μL) of assay buffer containing 50 mM of Tris-HCl (pH 7.4), BSA (heat inactivated, protease-free), […], 1 mg % aprotinin, 1 mg % leupeptin, 2 mg % 1,10-phenanthroline, 10 mg % trypsin inhibitor, and 0.1 mM PMSF. The inhibitors are added on the day of the experiment. The components are mixed at room temperature, and then kept in ice bath following adjustment of the pH to 7.4. […] 20 μL of 50% DMSO is added for Manning and other peptide ligands and the assay buffer volume is adjusted accordingly. To each well is added 50 μL of frozen membrane suspension thawed immediately prior to use and diluted in the assay buffer to the required concentration (equivalent to 25 to 50 μg of protein/well as needed). 20 μL of 8 nM [^3H]Manning ligand in the assay buffer, prepared just before use, is added, and incubated at room temperature for 60 min. shaking the plate on a mechanical shaker for the first 15 min. The incubation is stopped by rapid filtration of the plate contents followed by wash with ice-cold buffer (50 mM Tris-HCl, pH 7.4) using a cell harvester (Tomtek and Printed filtermat-B filter paper). The filter paper is thoroughly dried (7–12 min. in a microwave oven) and impregnated with MeltiLex B/H melt-on scintillation wax sheets and the radioactivity counted in a betaplate scintillation counter.
Binding data is either reported as percent inhibition at a certain concentration or if an IC50 was calculated, as a nanomolar concentration.

T1 sequence (P37288 whole entry): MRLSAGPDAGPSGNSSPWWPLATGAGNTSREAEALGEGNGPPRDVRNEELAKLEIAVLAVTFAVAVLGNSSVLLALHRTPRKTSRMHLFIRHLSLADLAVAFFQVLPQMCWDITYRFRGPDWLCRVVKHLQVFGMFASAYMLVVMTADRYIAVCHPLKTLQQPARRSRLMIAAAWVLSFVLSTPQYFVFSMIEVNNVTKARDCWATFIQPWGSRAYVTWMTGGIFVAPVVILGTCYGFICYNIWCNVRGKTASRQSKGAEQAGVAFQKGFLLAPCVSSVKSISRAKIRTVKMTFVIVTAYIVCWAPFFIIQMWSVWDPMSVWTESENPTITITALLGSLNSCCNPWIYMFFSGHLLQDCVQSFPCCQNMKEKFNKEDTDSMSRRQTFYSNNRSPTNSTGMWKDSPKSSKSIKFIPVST

What is called inhibition is the relative decrease from the control value, in per cent. Turning to `COc1ccccc1-c1ccc(C(=O)N2Cc3ccc(C(=O)N4CCC(N5CCCC5)CC4)n3Cc3ccccc32)cc1` [Example 140, {10-[(2′-Methoxy[1,1′-biphenyl]-4-yl)carbonyl]-10,11-dihydro-5H-pyrrolo[2,1-c][1,4]benzodiazepin-3-yl}[4-(1-pyrrolidinyl)-1-piperidinyl]methanone], the inhibition at 0.1 µM worked out at 24%.

In the case of `Cc1ccccc1-c1ccc(C(=O)N2Cc3ccc(C(=O)N4CCC(N5CCCC5)CC4)n3Cc3ccccc32)cc1` [Example 141, {10-[(2′-Methyl[1,1′-biphenyl]-4-yl)carbonyl]-10,11-dihydro-5H-pyrrolo[2,1-c][1,4]benzodiazepin-3-yl}[4-(1-pyrrolidinyl)-1-piperidinyl]methanone], the inhibition at 0.1 µM is -3%.

On to `COc1cc(C(=O)N2Cc3ccc(C(=O)N4CCC(N5CCCC5)CC4)n3Cc3ccccc32)ccc1-c1ccccc1C` [Example 142, {10-[(2-Methoxy-2′-methyl[1,1′-biphenyl]-4-yl)carbonyl]-10,11-dihydro-5H-pyrrolo[2,1-c][1,4]benzodiazepin-3-yl}[4-(1-pyrrolidinyl)-1-piperidinyl]methanone], for which the inhibition at 0.1 µM is 46%.

Turning to `COc1cccc(-c2cc(OC)c(C(=O)N3Cc4ccc(C(=O)N5CCC(N6CCCC6)CC5)n4Cc4ccccc43)cc2Cl)c1` [Example 143, {10-[(6-Chloro-3,3′-dimethoxy[1,1′-biphenyl]-4-yl)carbonyl]-10,11-dihydro-5H-pyrrolo[2,1-c][1,4]benzodiazepin-3-yl}[4-(1-pyrrolidinyl)-1-piperidinyl]methanone], the inhibition at 0.1 µM is -3%.

For the compound `COc1cc(C(=O)N2Cc3ccc(C(=O)N4CCC(N5CCCC5)CC4)n3Cc3ccccc32)ccc1-c1cccc2ccccc12` [Example 144, {10-[3-Methoxy-4-(1-naphthyl)benzoyl]-10,11-dihydro-5H-pyrrolo[2,1-c][1,4]benzodiazepin-3-yl}[4-(1-pyrrolidinyl)-1-piperidinyl]methanone], the inhibition at 0.1 µM was -1%.

For the compound `COc1ccccc1-c1ccc(C(=O)N2Cc3ccc(C(=O)N4CCC(N5CCCC5)CC4)n3Cc3ccccc32)cc1OC` [Example 145, {10-[(2,2′-Dimethoxy[1,1′-biphenyl]4-yl)carbonyl]-10,11-dihydro-5H-pyrrolo[2,1-c][1,4]benzodiazepin-3-yl}[4-(1-pyrrolidinyl)-l-piperidinyl]methanone], the “V1a % inhibition @ 100 nM” value is given as −4%.

On to `COc1cccc(-c2ccc(C(=O)N3Cc4ccc(C(=O)N5CCC(N6CCCC6)CC5)n4Cc4ccccc43)cc2OC)c1` [Example 146, {10-[(2,3′-Dimethoxy[1,1′-biphenyl]-4-yl)carbonyl]-10,11-dihydro-5H-pyrrolo[2,1-c][1,4]benzodiazepin-3-yl}[4-(1-pyrrolidinyl)-1-piperidinyl]methanone], for which the inhibition at 0.1 µM turned out to be 37%.

Regarding `O=C(c1ccc2n1Cc1ccccc1N(C(=O)c1ccc(-c3cccc4ccccc34)cc1Cl)C2)N1CCC(N2CCCC2)CC1` [Example 147, {10-[2-Chloro-4-(1-naphthyl)benzoyl]-10,11-dihydro-5H-pyrrolo[2,1-c][1,4]benzodiazepin-3-yl}[4-(1-pyrrolidinyl)-1-piperidinyl]methanone], the inhibition at 0.1 µM worked out at 3%.

With `Cc1cc(C(=O)N2Cc3ccc(C(=O)N4CCC(N5CCCC5)CC4)n3Cc3ccccc32)ccc1-c1ccccc1C(F)(F)F` [Example 148, (10-{[2-Methyl-2′-(trifluoromethyl)[1,1′-biphenyl]-4-yl]carbonyl}-10,11-dihydro-5H-pyrrolo[2,1-c][1,4]benzodiazepin-3-yl)[4-(1-pyrrolidinyl)-1-piperidinyl]methanone], the inhibition at 0.1 µM is -9%.

On to `COc1ccccc1-c1ccc(C(=O)N2Cc3ccc(C(=O)NCCN4CCCCC4)n3Cc3ccccc32)cc1C` [Example 149, 10-[(2′-Methoxy-2-methyl[1,1′-biphenyl]-4-yl)carbonyl]-N-[2-(1-piperidinyl)ethyl]-10,11-dihydro-5H-pyrrolo[2,1-c][1,4]benzodiazepine-3-carboxamide], for which the inhibition at 0.1 µM stood at 17%.

As for `Cc1ccccc1-c1ccc(C(=O)N2Cc3ccc(C(=O)NCCN4CCCCC4)n3Cc3ccccc32)cc1C` [Example 150, 10-[(2,2′-Dimethyl[1,1′-biphenyl]-4-yl)carbonyl]-N-[2-(1-piperidinyl)ethyl]-10,11-dihydro-5H-pyrrolo[2,1-c][1,4]benzodiazepine-3-carboxamide], the inhibition at 0.1 µM was found to be 42%.

For `COc1cccc(-c2ccc(C(=O)N3Cc4ccc(C(=O)NCCN5CCCCC5)n4Cc4ccccc43)cc2C)c1` [Example 151, 10-[(3′-Methoxy-2-methyl[1,1′-biphenyl]-4-yl)carbonyl]-N-[2-(1-piperidinyl)ethyl]-10,11-dihydro-5H-pyrrolo[2,1-c][1,4]benzodiazepine-3-carboxamide], the inhibition at 0.1 µM turned out to be 17%.

Consider `COc1ccccc1-c1ccc(C(=O)N2Cc3ccc(C(=O)NCCN4CCCCC4)n3Cc3ccccc32)cc1` [Example 152, 10-[(2′-Methoxy[1,1′-biphenyl]-4-yl)carbonyl]-N-[2-(1-piperidinyl)ethyl]-10,11-dihydro-5H-pyrrolo[2,1-c][1,4]benzodiazepine-3-carboxamide], for which the inhibition at 0.1 µM was 23%.

For the compound `Cc1ccccc1-c1ccc(C(=O)N2Cc3ccc(C(=O)NCCN4CCCCC4)n3Cc3ccccc32)cc1` [Example 153, 10-[(2′-Methyl[1,1′-biphenyl]-4-yl)carbonyl]-N-[2-(1-piperidinyl)ethyl]-10,11-dihydro-5H-pyrrolo[2,1-c][1,4]benzodiazepine-3-carboxamide], the inhibition at 0.1 µM turned out to be 50%.

Turning to `COc1cc(C(=O)N2Cc3ccc(C(=O)NCCN4CCCCC4)n3Cc3ccccc32)ccc1-c1ccccc1C` [Example 154, 10-[(2-Methoxy-2′-methyl[1,1′-biphenyl]4-yl)carbonyl]-N-[2-(1-piperidinyl)ethyl]-10,11-dihydro-5H-pyrrolo[2,1-c][1,4]benzodiazepine-3-carboxamide], the inhibition at 0.1 µM amounted to 39%.

Regarding `COc1cc(-c2ccccc2C)c(Cl)cc1C(=O)N1Cc2ccc(C(=O)NCCN3CCCCC3)n2Cc2ccccc21` [Example 155, 10-[(6-Chloro-3-methoxy-2′-methyl[1,1′-biphenyl]-4-yl)carbonyl]-N-[2-(1-piperidinyl)ethyl]-10,11-dihydro-5H-pyrrolo[2,1-c][1,4]benzodiazepine-3-carboxamide], the inhibition at 0.1 µM was found to be 0%.

`COc1cccc(-c2ccc(C(=O)N3Cc4ccc(C(=O)NCCC5CCCN5C)n4Cc4ccccc43)cc2C)c1` (stereo not drawn) [Example 164, 10-[(3′-Methoxy-2-methyl[1′1′-biphenyl]-4-yl)carbonyl]-N-[2-(1-methyl-2-pyrrolidinyl)ethyl]-10,11-dihydro-5H-pyrrolo[2,1-c][1,4]benzodiazepine-3-carboxamide]: the “V1a % inhibition @ 100 nM” value amounted to 23%.

Turning to `COc1cccc(-c2ccc(C(=O)N3Cc4ccc(C(=O)N5CCN(CCN(C)C)CC5)n4Cc4ccccc43)cc2C)c1` [Example 199, {4-[2-(Dimethylamino)ethyl]-1-piperazinyl{}10-[(3′-methoxy-2-methyl[1,1′-biphenyl]-4-yl)carbonyl]-10,11-dihydro-5H-pyrrolo[2,1-c][1,4]benzodiazepin-3-yl}methanone], the “V1a % inhibition @ 100 nM” value is 23%.
